According to patent US20170158699A1, “ADDITION SALTS OF (S)-2-(1-(6-AMINO-5-CYANOPYRIMIDIN-4-YLAMINO)ETHYL)-4-OXO-3-PHENYL-3,4-DIHYDROPYRROLO[1,2-F][1,2,4]TRIAZINE-5-CARBONITRILE” (Almirall, S.A., priority 2014, published 2017):
≈ marks a conversion by molar mass, not a printed value. Read-outs that look alike come from different tables or passages of the source.

Legend:
Type in all cases: physicochemical
[1] = Gravimetric Vapour Sorption (GVS) isotherm, XRPD checked afterwards; conditions: for Hygroscopicity / water sorption behaviour (GVS): 0-90% RH; for Hygroscopicity / water sorption behaviour (GVS) / GVS mass change: 25° C.; for Change in form or crystallinity (XRPD) after GVS measurement: XRPD before and after GVS; for GVS mass change: from 0-90% RH
Description: X-Ray Powder Diffraction (XRPD) patterns were collected on a Bruker D8 diffractometer using Cu Ka radiation (40 kV, 40 mA), θ-2θ goniometer, and divergence of V4 and receiving slits, a Ge monochromator and a Lynxeye detector. The instrument is performance checked using a certified Corundum standard (NIST 1976). The software used for data collection was Diffrac Plus XRD Commander v2.6.1 and the data were analysed and presented using Diffrac Plus EVA v13.0.0.2 or v15.0.0.0.
Samples were run under ambient conditions as flat plate specimens using powder as received. The sample was gently packed into a cavity cut into polished, zero-background (510) silicon wafer. The sample was rotated in its own plane during analysis. The details of the data collection were: • Angular range: 2 to 42° 2θ • Step size: 0.05° 2θ • Collection time: 0.5 s/step
Gravimetric Vapour Sorption (GVS; also known as Dynamic Vapour Sorption or DVS) isotherms were obtained using a SMS DVS Intrinsic moisture sorption analyser, controlled by DVS Intrinsic Control software v1.0.1.2. The sample temperature was maintained at 25° C. by the instrument controls. The humidity was controlled by mixing streams of dry and wet nitrogen, with a total flow rate of 200 mL/min The relative humidity was measured by a calibrated Rotronic probe (dynamic range of 1.0-100% RH), located near the sample. The weight change, (mass relaxation) of the sample as a function of % RH was constantly monitored by the microbalance (accuracy ±0.005 mg).
Typically 5-20 mg of sample were placed in a tared mesh stainless steel basket under ambient conditions. The sample was loaded and unloaded at 40% RH and 25° C. (typical room conditions). A moisture sorption isotherm was performed as outlined below (4 scans giving 2 complete cycles). The standard isotherm was performed at 25° C. at 10% RH intervals over a 0-90% RH range.

[2] = Differential scanning calorimetry (DSC) thermal stability
Description: The differential scanning calorimetry (DSC) thermograms were obtained using a TA Instruments Q2000 equipped with a 50 position auto-sampler. The calibration for thermal capacity was carried out using sapphire and the calibration for energy and temperature was carried out using certified indium. […] (some runs up to 400° C.). A purge of dry nitrogen at 50 ml/min was maintained over the sample.

Water-solubility test = conditions: room temperature (25° C.)

(S)-2-(1-(6-amino-5-cyanopyrimidin-4-ylamino)ethyl)-4-oxo-3-phenyl-3,4-dihydropyrrolo[1,2-f][1,2,4]triazine-5-carbonitrile methanesulfonate [Example 1]
Hygroscopicity / water sorption behaviour (GVS) [1]: not hygroscopic
Change in form or crystallinity (XRPD) after GVS measurement [1]: no change in form or crystallinity
GVS mass change [1]: approx. 1.2%
Stability of the sample up to temperature (DSC) ([2]; heated at 10° C./min, dry nitrogen purge): more than 300 °C
Water Solubility @ 25° C. (Water-solubility test): 60 µg/mL

C[C@H](Nc1ncnc(N)c1C#N)c1nn2ccc(C#N)c2c(=O)n1-c1ccccc1 [Example C1, (S)-2-(1-(6-amino-5-cyanopyrimidin-4-ylamino)ethyl)-4-oxo-3-phenyl-3,4-dihydropyrrolo[1,2-f][1,2,4]triazine-5-carbonitrile]
solubility (Water-solubility test): 1 µg/mL (≈ 2.52 µM)

C[C@H](Nc1ncnc(N)c1C#N)c1nn2ccc(C#N)c2c(=O)n1-c1ccccc1.Cc1ccc(S(=O)(=O)O)cc1 [Example 3, (S)-2-(1-(6-amino-5-cyanopyrimidin-4-ylamino)ethyl)-4-oxo-3-phenyl-3,4-dihydropyrrolo[1,2-f][1,2,4]triazine-5-carbonitrile para-toluenesulfonate]
Hygroscopicity / water sorption behaviour (GVS) [1]: not hygroscopic
Change in form or crystallinity (XRPD) after GVS measurement [1]: no change in form or crystallinity
GVS mass change [1]: approx. 0.3%
Stability of the sample up to temperature (DSC) [2]: more than 250 °C

C[C@H](Nc1ncnc(N)c1C#N)c1nn2ccc(C#N)c2c(=O)n1-c1ccccc1.O=S(=O)(O)c1ccc2ccccc2c1 [Example 2, (S)-2-(1-(6-amino-5-cyanopyrimidin-4-ylamino)ethyl)-4-oxo-3-phenyl-3,4-dihydropyrrolo[1,2-f][1,2,4]triazine-5-carbonitrile naphthalene-2-sulfonate]
Hygroscopicity / water sorption behaviour (GVS) [1]: reversible and no hydrates were formed
Change in form or crystallinity (XRPD) after GVS measurement [1]: no change in form or crystallinity
GVS mass change [1]: approx. 3.3%
Stability of the sample up to temperature (DSC) [2]: more than 250 °C
